# Measurements as given in US20050288227A1, “Use of thioredoxin measurements for diagnostics and treatments” (priority 2002, published 2005).
# Where two headings read alike, the source gives them in different places.
# Experiments:
# [1] = phase I; cited from earlier work
# HDAC = conditions: literature statement, cited from earlier work
# [2] = system: acute myelogenous leukemia; conditions: a patient with acute myelogenous leukemia; cited from earlier work
# tumor growth = conditions: animals; cited from earlier work
# TRX [3] = test: Northern blot of TRX mRNA in WI38; type: cell-based, human; conditions: WI38 cultured with 5 μmol/l SAHA, FIG. 4A
# Description: Cells were cultured and recovered by centrifugation and RNA was prepared as described (Richon, V. M., et al., 1996, Proc. Natl. Acad. Sci. USA. 93:5705-5708). Total RNA (10 μg) was analyzed by northern blotting using a ^32P-labeled 1.1-kb TBP-2 coding region cDNA probe or a 500 bp cDNA probe for human TRX (Butler et al., 2002, Proc. Natl. Acad. Sci. USA 99:11700-11705). Loading was determined using a ^32P labeled 50-mer 18s rRNA oligonucleotide.
# TRX [4] = test: Western blot of TRX protein in WI38; type: cell-based, human; conditions: WI38 cultured with 5 μmol/l SAHA, FIG. 4B
# Description: (§1) Typically, whole cell lysates were prepared using a buffer (50 mM Tris-HCL pH 8, 300 mM NaCl, 5 mM EDTA, 0.5% NP-40, inhibitor pellet from Roche). Next, 10-25 μg of cell extract were subjected to standard SDS-poly acrylamide gel electrophoresis using 10%, 15%, and 18% criterion gels (Bio-Rad). After transferring to PVDF membrane (Amersham Biosciences), the membranes were blocked with 5% BSA PBS-Tween (0.1%). The membranes were then incubated with specific primary antibody and horseradish peroxidase-labeled secondary antibody. Immunoprecipitation was based on the protocol of Santa Cruz Biotechnology. Briefly, 100-500 μg of total cellular protein were applied and incubated with protein agarose (Ausubel, F. M., et al. Current Protocols in Molecular Biology. 10.16 John Wiley & Sons. 2001).
# (§2) TBP-2 antiserum was generated in rabbits (Pocono Farms) using following sequence (peptide) CYM DVI PED HRL ESP (SEQ ID NO:7). Anti-TRX was prepared in the laboratory of Dr. Arne Holmgren (Karolinska institute) as a goat polyclonal antibody. Anti-tubulin was purchased from Oncogene.
# (§3) TBP-2 has been identified as a protein that associates with the active (reduced) form of TRX, a dithiol-reducing redox regulatory protein (Nishiyama, A., et al., 1999, J. Biol. Chem. 274, 21645-21650). Binding of TBP-2 to TRX both inhibits the thiol-reducing activity and reduces the level of expression of TRX. […]
# [5] = system: solid and hematological tumors; conditions: cited from earlier work
# [6] = system: acetylated histones in PMN cells; conditions: following a single oral dose; cited from earlier work
# [7] = system: WI38-VA13 (SV-40 transformed human lung fibroblast); test: SAHA-induced apoptosis / viability; type: cell-based
# Text: (§4) HeLa (human cervical carcinoma), WI38 (human lung fibroblast), WI38-VA13 (SV-40 transformed human lung fibroblast), MCF-7 (human breast adenocarcinoma), T-24 human bladder transitional cell carcinoma), and LNCAP (human prostate adenocarcinoma) were obtained from the American type culture collection and cultured in accordance with the instructions. ARP-1 (human multiple myeloma) was generously provided by Dr. J. Hardoc (Arkansas Cancer Research Center, Little Rock) and cultured as indicated by the source.
# (§5) Cells were harvested by trypsinization. Cell number and viability were measured by trypan blue dye exclusion and by Guava PCA-96 via count flex reagent according to the manufacturer's instruction (Guava).
# [8] = system: WI38 (human lung fibroblast); test: SAHA-induced apoptosis / viability; type: cell-based; conditions: normal fibroblast WI38 cells, FIGS. 2-3
# Text: as §4, §5
# TRX [9] = test: Western blot of TRX protein in VA13; type: cell-based, human; conditions: VA13 cultured with 5 μmol/l SAHA, FIG. 4B
# Description: as §1, §2, §3
# [10] = system: WI38-VA13 (SV-40 transformed human lung fibroblast); test: Cell growth (cell number, trypan blue / Guava); type: cell-based; conditions: VA13 cells, FIG. 2A
# Text: as §4, §5
# [11] = system: WI38 (human lung fibroblast); test: Cell growth (cell number, trypan blue / Guava); type: cell-based; conditions: WI38 cells, FIG. 2B
# Text: as §4, §5
# [12] = system: metastatic renal cell carcinoma; conditions: Phase II; cited from earlier work
# [13] = system: non-small cell lung cancer; conditions: Phase II, cited from earlier work
# [14] = oral formulation of PB; cited from earlier work
structure (smiles),measurement,setting,value
"Nc1ccccc1NC(=O)c1ccc(CNC(=O)OCc2cccnc2)cc1 [MS-275, N-(2-aminophenyl)-4-[N-(pyridin-3-yl-methoxycarbonyl)aminomethyl] benzamide]",half-life,[1],longer than expected
same,HDAC inhibitory potency (level of activity),HDAC,less potent than the corresponding hydroxamates and cyclic tetrapeptides
C/C=C1\NC(=O)[C@H]2CSSCC/C=C/[C@H](CC(=O)N[C@H](C(C)C)C(=O)N2)OC(=O)[C@H](C(C)C)NC1=O [depsipeptide],HDAC inhibitory potency (level of activity),HDAC,active at nanomolar levels
same,HDAC inhibitory potency (level of activity),HDAC; listed as Depsipeptide,inhibits HDACs at nanomolar concentrations
"CCCC(CCC)C(=O)O [valproic acid, Valproic Acid]",clinical response,[2],transient partial remission
same,HDAC inhibitory potency (level of activity),HDAC,millimolar levels of activity
"O=C(CCCCCCC(=O)Nc1ccccc1)NO [SAHA, suberoylanilide hydroxamic acid]",toxicity to the animal,tumor growth,no toxicity
same,TRX mRNA expression,TRX [3],increased significantly
same,TRX protein levels,TRX [4],increased significantly
same,drug related deaths,"[5]; oral SAHA, patients",no drug related deaths
same,longest duration of therapy (durable responses),"[5]; oral SAHA, patients",over 18 months
same,oral bioavailability,[5]; oral formulation of SAHA,good oral bioavailibity
same,persistence of accumulation of acetylated histones in PMN cells,[6],up to 10 hrs
same,growth arrest and apoptosis,"[7]; transformed VA13, FIGS. 2-3",induced growth arrest and apoptosis
same,SAHA concentration sufficient to induce significant apoptosis,"[7]; transformed cells, after 24-48 hours of SAHA treatment, FIG. 3A",1.25 to 2.5 µmol/L
same,apoptosis,[8],little or no apoptosis
same,TRX protein levels,TRX [9],quickly decrease to undetectable levels
same,SAHA dose that induces growth arrest,[10],≥ 2.5 µM
same,SAHA dose that induces growth arrest,[11],≥ 2.5 µM
O=C(/C=C/c1ccc(CN(CCO)CCc2c[nH]c3ccccc23)cc1)NO [LAQ824],HDAC inhibitory potency (level of activity),HDAC,nanomolar inhibitor
CC(=O)Nc1ccc(C(=O)Nc2ccccc2N)cc1 [CI-994],patients with stable disease for greater than 8 weeks,[12],58%
same,patients having a partial response to therapy,[13]; 32 patients,7%
same,patients having stable disease for over 8 weeks,[13],28%
same,HDAC inhibitory potency (level of activity),HDAC,less potent than the corresponding hydroxamates and cyclic tetrapeptides
"O=C(O)CCCc1ccccc1 [phenyl butyrate, Phenyl Butyrate]",biologic active plasma concentrations reached,[14],0.5 mM
same,oral bioavailability,[14],good bioavailability
same,HDAC inhibitory potency (level of activity),HDAC,millimolar levels of activity
